Results published in patent US20030087761A1, “Synergistic active compound combinations for controlling harmful plants” (priority 2001, published 2003).

Experiments:
Assay type in all cases: in vivo
[1] = system: ECHCG; experiment: Field trial in corn, pre-emergence method: herbicidal effect on ECHCG; details: evaluation 36 days after application
Procedure: (§1) The herbicidal efficacy of the active compounds or active compound mixtures was scored visually using the treated plots in comparison to untreated control plots. The damage and development of all above-ground parts of the plants were recorded. Scoring was carried out using a percentage scale (100% effect=all plants killed; 50% effect=50% of the plants and the green parts of the plants killed; 0% effect no noticeable effect=like control plot). The scores of in each case 4 plots were averaged.
(§2) Crop plants were grown outdoors on plots under natural outdoor conditions, and seeds or rhizome pieces of typical harmful plants were laid out or the natural weed growth was utilized. Treatment with the compositions according to the invention was carried out after the harmful plants had emerged and the crop plants were, generally, at the 2- to 4-leaf stage; in some cases (as stated), application of individual active compounds or active compound combinations was carried out pre-emergence (cf. Section 1) or post-emergence (cf. Section 2) or as a sequential treatment partly pre-emergence and/or post-emergence. After the application, for example 2, 4, 6 and 8 weeks after the application, the effect of the preparations was scored visually by comparison with untreated controls (cf. scoring in Section 1). In the field trial as well, the compositions according to the invention have synergistic herbicidal activity against a broad spectrum of economically important weed grasses and broad-leaved weeds. […] Moreover, the effects in essential phases of the scoring period were above the expected values according to Colby, also indicating synergism. In contrast, the crop plants were, as a consequence of the treatments with the herbicidal compositions, damaged only to a small degree, if at all.
(§3) The numbers in the columns of the table under the designations of the harmful plants and the crop plants relate to the herbicidal effects or damage to the plants in percent.

[2] = system: Corn; experiment: Field trial in corn, pre-emergence method: crop damage
Procedure: as §1, §2, §3

[3] = system: CHEAL; experiment: Field trial in corn, pre-emergence method: herbicidal effect on CHEAL; details: evaluation 36 days after application
Procedure: as §1, §2, §3

[4] = system: APESV = Apera spica-venti (common wind grass); experiment: Field trial in winter wheat, post-emergence method: herbicidal effect on APESV; details: post-emergence at middle tillering stage, evaluation 21 days after application, dose 50 g ai/ha
Procedure: as §1
(§4) Crop plants were grown outdoors on plots under natural outdoor conditions, and seeds or rhizome pieces of typical harmful plants were laid out or the natural weed growth was utilized. Treatment with the compositions according to the invention was carried out after the harmful plants had emerged and the crop plants were, generally, at the 2- to 4-leaf stage; in some cases (as stated), application of individual active compounds or active compound combinations was carried out pre-emergence (cf. Section 1) or post-emergence (cf. Section 2) or as a sequential treatment partly pre-emergence and/or post-emergence. After the application, for example 2, 4, 6 and 8 weeks after the application, the effect of the preparations was scored visually by comparison with untreated controls (cf. scoring in Section 1). […]

[5] = system: Winter wheat; experiment: Field trial in winter wheat, post-emergence method: crop damage; details: post-emergence at middle tillering stage, evaluation 21 days after application, dose 50 g ai/ha
Procedure: as §1, §4

[6] = field trial, pre-emergence, evaluation 36 days after application, dose 75 g ai/ha

Row | SMILES | ECHCG [effect in %] ([1]; dose 75 g ai/ha) | Corn [damage in %] [2, 6] | CHEAL [effect in %] ([3]; dose 75 g ai/ha) | APESV [effect in %] [4] | Winter wheat [damage in %] [5] | other results
1 | CCC(F)c1nc(N)nc(C(C)c2ccc(F)c(C)c2)n1 (stereo not shown) [(A20), 2-amino-4-(1-fluoropropyl)-6-[1-(3-methyl-4-fluorophenyl)ethyl]-1,3,5-triazine] | 0% | 0% | 20% | – | – | –
2 | CCC(F)c1nc(N)nc(C(C)c2cc(F)cc(F)c2)n1 (stereo not shown) [(A60), 2-amino-4-(1-fluoropropyl)-6-[1-(3,5-difluorophenyl)ethyl]-1,3,5-triazine] | – | – | – | 0% | 0% | –
3 | CS(=O)(=O)c1cc(C(F)(F)F)ccc1C(=O)c1cnoc1C1CC1 [(B3.4.4), isoxaflutole, reference compound] | – | – | – | – | – | ECHCG [effect in %] ([1]; dose 50 g ai/ha): 86%; Corn [damage in %] ([2]; corn, in vivo, 36 days): 0%; CHEAL [effect in %] ([3]; dose 50 g ai/ha): 25%
4 | CC(F)c1nc(N)nc(C(C)c2ccc(F)c(F)c2)n1 (stereo not shown) [(A11), 2-amino-4-(1-fluoroethyl)-6-[1-(3,4-difluorophenyl)ethyl]-1,3,5-triazine] | 0% | 0% | 0% | – | – | –
5 | CCC(F)c1nc(N)nc(C(C)c2ccc(F)c(Cl)c2)n1 (stereo not shown) [(A50), 2-amino-4-(1-fluoropropyl)-6-[1-(3-chloro-4-fluorophenyl)ethyl]-1,3,5-triazine] | – | – | – | 0% | 0% | –
